The record followed here is patent publication US12473291B2 (priority 2019, dated 2025).

Where two headings read alike, the source gives them in different places.

Experiment [1] concerns KM mice. In words: animal or person. The class given is in vivo. Particulars: for duration and recovery time compared with remimazolam / effective dose compared with remimazolam: mice, tail vein, in words.
The subject of experiment [2] is SD rats. Nature of the experiment: animal or person. The format is in vivo. The note with it: for duration and recovery time compared with remimazolam / effective dose compared with remimazolam: rats, tail vein, in words.
[3] abbreviates: KM mice, single tail vein injection at 2×ED50, time from disappearance to recovery of righting reflex.
The mark [4] stands for this setting: KM mice, single tail vein injection at 2×ED50, time from recovery of righting reflex to free crawling.
[5] abbreviates: Mus musculus, KM mice (male, 18-22 g), injection via the tail vein, disappearance of righting reflex, read-out: ED50.
Setting [6] is: Rattus norvegicus, SD rats (male, 220-300 g), injection via the tail vein, disappearance of righting reflex, read-out: ED50.
The mark [7] stands for this setting: SD rats, single tail vein injection at 2×ED50, time from disappearance to recovery of righting reflex.
[8] abbreviates: SD rats, single tail vein injection at 2×ED50, time from recovery of righting reflex to free crawling.

As a reminder, the ED50 is the dose that gives a 50% effect, or the effect in half of the subjects. With `Cc1c(Br)cc2c(c1Cl)-n1c(C)cnc1[C@H](CCC(=O)OC(C)(C)NC(=O)OC1CCC1)N=C2c1ccccn1` [Example 66], the 2ED50 duration in experiment [1] (setting [3]) worked out at 3.14 min; in experiment [2] (setting [7]) it was 4.02 min. Moreover, the 2ED50 recovery time is on record as 2.35 min in experiment [1] (setting [4]) and 2.17 min in experiment [2] (setting [8]). Moreover, the Quality of recovery result in experiment [1] (KM mice, tail vein injection) is reported as “+++ (“+++” means 3-5 min)”; in experiment [2] (SD rats, tail vein injection), “++ (“++” means 1-3 min)”. Further, the ED50 stood at 30.4 mg/kg in experiment [1] (setting [5]) and 4.8 mg/kg in experiment [2] (setting [6]).
Turning to `COC(=O)C1(OC(=O)CC[C@@H]2N=C(c3ccccn3)c3cc(Cl)c(C(F)(F)F)cc3-n3c(C)cnc32)CC1` [Example 25], the results for the 2ED50 duration in experiment [1] (setting [3]) and in experiment [2] (setting [7]) were 5.32 min and 3.53 min, respectively. Moreover, the 2ED50 recovery time in experiment [1] (setting [4]) stood at 2.19 min; in experiment [2] (setting [8]) it was 2.21 min. Moreover, the Quality of recovery result was “++ (“++” means 1-3 min)” in experiment [1] (KM mice, tail vein injection) and “++ (“++” means 1-3 min)” in experiment [2] (SD rats, tail vein injection). Also, the ED50 was 34 mg/kg in experiment [1] (setting [5]) and 4.2 mg/kg in experiment [2] (setting [6]).
Take `CCCOC(=O)C1(OC(=O)CC[C@@H]2N=C(c3ccccn3)c3c(cc(OC(F)(F)F)c(Cl)c3C)-n3c(C)cnc32)CC1` [Example 75]: the values for the 2ED50 duration in experiment [1] (setting [3]) and in experiment [2] (setting [7]) were 3.53 min and 2.26 min, respectively. The 2ED50 recovery time in experiment [1] (setting [4]) stood at 1.58 min; in experiment [2] (setting [8]) it was 2.15 min. The Quality of recovery entry is reported as “+++ (“+++” means 3-5 min)” in experiment [1] (KM mice, tail vein injection) and “+++ (“+++” means 3-5 min)” in experiment [2] (SD rats, tail vein injection). Further, the results for the ED50 in experiment [1] (setting [5]) and in experiment [2] (setting [6]) were 29.1 mg/kg and 5.8 mg/kg, respectively.
`Cc1cnc2n1-c1ccc(Br)cc1C(c1ccccn1)=N[C@H]2CCC(=O)OC(C)OC(=O)OC(C)C` (stereo partly shown) [Example 55]: the 2ED50 duration in experiment [1] (setting [3]) is reported as 4.65 min; in experiment [2] (setting [7]), 3.28 min. Also, the results for the 2ED50 recovery time in experiment [1] (setting [4]) and in experiment [2] (setting [8]) were 1.29 min and 2.51 min, respectively. Also, the values for the ED50 in experiment [1] (setting [5]) and in experiment [2] (setting [6]) were 28.1 mg/kg and 5.2 mg/kg, respectively. Moreover, the “duration and recovery time compared with remimazolam” value in experiment [1] and in experiment [2] was “significantly shorter” throughout. Besides, the “effective dose compared with remimazolam” value in experiment [1] and in experiment [2] was “significantly lower” throughout. Also, the Quality of recovery entry in experiment [2] (SD rats, tail vein injection) is “+ (“+” means <1 min)”.
With `COC(=O)C(OC(=O)CC[C@@H]1N=C(c2ccccn2)c2cc(Br)c(OC(F)(F)F)c(C)c2-n2c(C)cnc21)C1CCSC1` (stereo partly drawn) [Example 74, 2-methoxy-2-oxo-1-(tetrahydrothiophene-3-yl)ethyl 3-((4S)-8-bromo-1,10-dimethyl-6-(pyridine-2-yl)-9-(trifluoromethoxy)-4H-benzo[f]imidazo[1,2-a][1,4]diazapin-4-yl)propionate stearate], the 2ED50 duration in experiment [1] (setting [3]) was found to be 3.42 min; in experiment [2] (setting [7]) it was 2.67 min. Also, the values for the 2ED50 recovery time in experiment [1] (setting [4]) and in experiment [2] (setting [8]) were 2.17 min and 2.54 min, respectively. Besides, the Quality of recovery entry in experiment [1] (KM mice, tail vein injection) is recorded as “++ (“++” means 1-3 min)”; in experiment [2] (SD rats, tail vein injection) it was “+++ (“+++” means 3-5 min)”. Besides, the figures for the ED50 in experiment [1] (setting [5]) and in experiment [2] (setting [6]) were 24.5 mg/kg and 5.7 mg/kg, respectively.
Consider `CCc1c(Br)cc2c(c1Cl)-n1c(C)cnc1[C@H](CCC(=O)OC(C)(CC)SC(=O)OC)N=C2c1ccccn1` (stereo partly shown) [Example 63], for which the 2ED50 duration came to 3.14 min in experiment [1] (setting [3]) and 2.03 min in experiment [2] (setting [7]). The 2ED50 recovery time was 2.03 min in experiment [1] (setting [4]) and 2.09 min in experiment [2] (setting [8]). Besides, the Quality of recovery entry in experiment [1] (KM mice, tail vein injection) is “++ (“++” means 1-3 min)”; in experiment [2] (SD rats, tail vein injection), “++ (“++” means 1-3 min)”. Besides, the values for the ED50 in experiment [1] (setting [5]) and in experiment [2] (setting [6]) were 29.8 mg/kg and 3.5 mg/kg, respectively.
Consider `Cc1cnc2n1-c1ccc(Br)cc1C(c1ccccn1)=N[C@H]2CCC(=O)OCOC(=O)OC(C(C)C)C(C)C` [Example 52], for which the 2ED50 duration in experiment [1] (setting [3]) is over 10 min; in experiment [2] (setting [7]), 4.03 min. Besides, the 2ED50 recovery time in experiment [1] (setting [4]) amounted to 1.49 min; in experiment [2] (setting [8]), 2.41 min. For the same compound, the Quality of recovery result is on record as “++++ (“++++” means 5-10 min)” in experiment [1] (KM mice, tail vein injection) and “++ (“++” means 1-3 min)” in experiment [2] (SD rats, tail vein injection). For the same compound, the figures for the ED50 in experiment [1] (setting [5]) and in experiment [2] (setting [6]) were 32 mg/kg and 6.8 mg/kg, respectively.
In the case of `Cc1cnc2n1-c1cc(Br)c(Br)cc1C(c1ccccn1)=N[C@H]2CCC(=O)OCOC(=O)OC(C)C(C)C` (stereo partly shown) [Example 13], the 2ED50 duration in experiment [1] (setting [3]) is given as 5.22 min; in experiment [2] (setting [7]), 4.02 min. The 2ED50 recovery time was found to be 2.34 min in experiment [1] (setting [4]) and 2.45 min in experiment [2] (setting [8]). Further, the Quality of recovery result was “+++ (“+++” means 3-5 min)” in experiment [1] (KM mice, tail vein injection) and “+++ (“+++” means 3-5 min)” in experiment [2] (SD rats, tail vein injection). For the same compound, the ED50 in experiment [1] (setting [5]) came to 27 mg/kg; in experiment [2] (setting [6]), 5.3 mg/kg.
In the case of `CCOC(=O)C(C)OC(=O)CC[C@@H]1N=C(c2ccccn2)c2cc(Br)ccc2-n2c(C)cnc21` (stereo partly shown) [Example 61], the 2ED50 duration in experiment [1] (setting [3]) amounted to 3.01 min; in experiment [2] (setting [7]) it was 1.21 min. The 2ED50 recovery time in experiment [1] (setting [4]) stood at 1.58 min; in experiment [2] (setting [8]) it was 2.01 min. Moreover, the Quality of recovery entry in experiment [1] (KM mice, tail vein injection) is recorded as “+++ (“+++” means 3-5 min)”; in experiment [2] (SD rats, tail vein injection) it was “++ (“++” means 1-3 min)”. Moreover, the ED50 in experiment [1] (setting [5]) is 29.9 mg/kg; in experiment [2] (setting [6]), 2.7 mg/kg.
In experiment [1] (Mus musculus), `Cc1c(Cl)c(C(F)(F)F)cc2c1C(c1ccccn1)=N[C@@H](CCC(=O)OC(C)C(=O)OC(C)C)c1ncc(C)n1-2` (stereo partly drawn) [Example 78, 1-Isopropoxy-1-oxopropane-2-yl3-((4S)-8-chloro-1,7-dimethyl-6-(pyridine-2-yl)-9-(trifluoromethyl)-4H-benzo[f]imidazo[1,2-a][1,4]diaza-4-ylpropionate nicotinate] showed an ED50 of 28.2 mg/kg. Besides, in experiment [1] (mouse, in vivo), the 2ED50 duration worked out at 3.39 min, the 2ED50 recovery time came out at 1.36 min and the Quality of recovery entry was “++ (key: “+” means <1 mm; “++” means 1-3 min; “+++” means 3-5 min; “++++” means 5-10 min; “+++++” means >10 mm)”. In addition, the ED50 in experiment [2] (Rattus norvegicus) was found to be 6.2 mg/kg. Besides, in experiment [2] (rat, in vivo), the “2ED50 duration” value is 2.55 min, the 2ED50 recovery time worked out at 2.38 min and the Quality of recovery result is listed as “++ (key: “+” means <1 mm; “++” means 1-3 min; “+++” means 3-5 min; “++++” means 5-10 min; “+++++” means >10 mm)”.
Take `CCC(CC)OC(=O)OC(OC(=O)CC[C@@H]1N=C(c2ccccn2)c2cc(Cl)c(OC(F)(F)F)cc2-n2c(C)cnc21)C1CC(F)C(CC)C1` (stereo partly drawn) [Example 68, (3-Ethyl-4-fluorocyclopentyl) (((pentanyl-3-yloxy)carbonyl)oxy)methyl 3-((4S)-8-chloro-1-methyl-6-(pyridine-2-yl)-9-(trifluoromethoxy)-4H-benzo[f]imidazo[1,2-a][1,4]diazapin-4-yl) propionate L-aspartate]: the 2ED50 duration amounted to 3.09 min in experiment [1] (setting [3]) and 4.28 min in experiment [2] (setting [7]). The figures for the 50% effective dose (ED50) in experiment [1] (setting [5]) and in experiment [2] (setting [6]) were 28.9 mg/kg and 5.9 mg/kg, respectively.
`CC(=O)O.COC(=O)C1(OC(=O)CC[C@@H]2N=C(c3ccccn3)c3cc(Cl)c(OC(F)(F)F)cc3-n3c(C)cnc32)CC1` [Example 42]: the ED50 was found to be 8.7 mg/kg in experiment [1] (KM mice (male, 18-22 g), injection via the tail vein, disappearance of righting reflex) and 4.7 mg/kg in experiment [2] (SD rats (male, 220-300 g), injection via the tail vein, disappearance of righting reflex). Further, the 2ED50 duration in experiment [1] (setting [3]) stood at 0.58 min; in experiment [2] (setting [7]) it was 0.51 min. The 2ED50 recovery time in experiment [1] (setting [4]) was determined as 0.53 min; in experiment [2] (setting [8]) it was 0.31 min. Also, the Quality of recovery entry in experiment [1] (KM mice, tail vein injection) is on record as “+ (“+” means <1 mm)”; in experiment [2] (SD rats, tail vein injection), “+ (“+” means <1 min)”. Besides, the “duration and recovery time compared with remimazolam” value in experiment [1] and in experiment [2] was “significantly shorter” each time. Also, the “effective dose compared with remimazolam” value in experiment [1] and in experiment [2] was “significantly lower” throughout.
For `COC(=O)OCOC(=O)CC[C@@H]1N=C(c2ccccn2)c2cc(Br)ccc2-n2c(C)cnc21` [Example 34], the 2ED50 duration was found to be 1.31 min in experiment [1] (setting [3]) and 1.21 min in experiment [2] (setting [7]). The figures for the 2ED50 recovery time in experiment [1] (setting [4]) and in experiment [2] (setting [8]) were 1.23 min and 1.01 min, respectively. Moreover, the ED50 in experiment [1] (setting [5]) was 14.4 mg/kg; in experiment [2] (setting [6]), 3.4 mg/kg. Moreover, the “duration and recovery time compared with remimazolam” value in experiment [1] and in experiment [2] was “significantly shorter” in each case. In addition, the “effective dose compared with remimazolam” value in experiment [1] and in experiment [2] was “significantly lower” throughout. Besides, the Quality of recovery entry in experiment [2] (SD rats, tail vein injection) is listed as “+ (“+” means <1 min)”.
For `CCOC(=O)OC(C)OC(=O)CC[C@@H]1N=C(c2ccccn2)c2cc(Br)ccc2-n2c(C)cnc21` (stereo partly shown) [Example 54], the 2ED50 duration in experiment [1] (setting [3]) was 8.52 min; in experiment [2] (setting [7]), 3.22 min. The 2ED50 recovery time in experiment [1] (setting [4]) was 1.56 min; in experiment [2] (setting [8]), 2.52 min. The ED50 in experiment [1] (setting [5]) was determined as 25 mg/kg; in experiment [2] (setting [6]), 6.4 mg/kg. Besides, the “duration and recovery time compared with remimazolam” value in experiment [1] and in experiment [2] was “significantly shorter” in each case. In addition, the “effective dose compared with remimazolam” value in experiment [1] and in experiment [2] was “significantly lower” in each case. The Quality of recovery result in experiment [2] (SD rats, tail vein injection) is “+++ (“+++” means 3-5 min)”.
